From patent US20060189576A1, “Substituted vitamin d analogues and their therapeutic uses” (priority 2003, published 2006)
Where two headings read alike, the source gives them in different places. Marks after values point to notes of the source that are not given here.

Experiments:
hDBP = molecular target: T1, hDBP (Homo sapiens, UniProt P02774); assay: Affinity for human DBP: competition with [3H]1α,25(OH)2D3; assay type: binding; conditions: percentage activity (at 50% of the dose response) in comparison with 1α,25(OH)2D3 (=100%)
T1 sequence (P02774 17-474): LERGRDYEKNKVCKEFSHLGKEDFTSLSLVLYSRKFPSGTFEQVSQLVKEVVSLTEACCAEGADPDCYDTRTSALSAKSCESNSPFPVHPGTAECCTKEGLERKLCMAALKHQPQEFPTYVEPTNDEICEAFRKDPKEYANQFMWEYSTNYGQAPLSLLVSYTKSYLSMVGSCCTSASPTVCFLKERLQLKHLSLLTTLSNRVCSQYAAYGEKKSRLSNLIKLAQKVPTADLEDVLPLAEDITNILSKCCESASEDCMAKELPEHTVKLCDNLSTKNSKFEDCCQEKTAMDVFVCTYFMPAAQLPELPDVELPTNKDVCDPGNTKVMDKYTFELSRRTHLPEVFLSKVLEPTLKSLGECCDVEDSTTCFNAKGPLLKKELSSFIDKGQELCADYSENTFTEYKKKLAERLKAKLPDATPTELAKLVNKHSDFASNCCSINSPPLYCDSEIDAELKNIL
Procedure: Phase separation was then obtained by the addition of 0.5 ml of cold dextran-coated charcoal.

HL-60 cells = assay: HL-60 cell differentiation (NBT reduction assay); assay type: cell-based; conditions: for IN VITRO STUDIES HL 60: potency to differentiate HL 60 cells, percentage activity vs 1α,25(OH)2D3 (=100%)
Procedure: To evaluate the effect on cell differentiation HL-60 cells were seeded at 4×10^4 cells/ml in 25 cm^2 Falcon tissue chambers using RPMI 1640 medium supplemented with 20% FCS and gentamycin (50 μg/ml) in a final volume of 5 ml. Cultures were maintained at 37° C. in a humidified atmosphere of 5% CO2 in air. […] After 4 days of culture, the dishes were shaken to lose adherent cells. Cells were washed twice in RPMI, counted and assayed for differentiation markers (NBT reduction assay). Superoxide production was measured as NBT reducing activity as described previously (Ostrem V. K et al. Proc Natl Acad Sci USA 84: 2610-2614, 1987). HL-60 cells at 1×10^6/ml were mixed with an equal volume of freshly prepared solution of phorbol 12-myristate 13-acetate (200 ng/ml) and […] and incubated for 30 min at 37° C. The percentage of cells containing black formazan deposits was determined using a hemacytometer.

MCF-7 cells [1] = assay: MCF-7 cell proliferation ([3H]thymidine incorporation); assay type: cell-based; conditions: for IN VITRO STUDIES MCF-7: antiproliferative action, percentage activity vs 1α,25(OH)2D3 (=100%); for Antiproliferative activity on MCF-7 cells: percentage activity (at 50% of the dose response) vs 1α,25(OH)2D3 (=100%)
Procedure: To evaluate the effect of on cell proliferation, malignant MCF-7 cells were cultured in DMEM/nut. mix. […] Cultures were maintained at 37° C. in a humidified atmosphere of 5% CO2 in air. MCF-7 cells were seeded at 5×10^3 cells/well in the above described medium in 96-well microtiter plates in a final volume of 0.2 ml per well. Triplicate cultures were performed. […] Then, 1 μCi [^3H]thymidine was added to each well and cells were harvested after 4 h incubation with a Packard harvester and measured by the Packard Topcount System (Packard, Meriden, USA).

[2] = Primary prevention of osteoporosis in ovariectomized mice; assay type: in vivo, C3H female mice
Procedure: 12 week old C3H female mice are subjected to bilateral ovariectomy or sham surgery. The animals are treated with the analog or vehicle by oral gavage or intraperitoneally. Dosing is started 3 days after sugery and continued for 8-9 weeks.
(§1) Before the first treatment in vivo measurements are performed to determine bone mineral density (BMD), bone mineral content (BMC) of total body and spine by dual-energy X-ray absorptiometry (DXA). Urine and serum is collected to measure calcium levels together with collagen cross-links in urine and osteocalcin in serum. The animals are weighed regularly during the experimental period. After 4 weeks treatment urine and serum is again collected and biochemical parameters are determined. At the end of the experiment (8-9 weeks) urine is collected and DXA measurement is performed in vivo to determine BMD and BMC. After killing the animals tibiae and femora are dissected The following biochemical parameters are investigated: serum calcium, serum osteocalcin, urine calcium, urine collagen cross-links, femur calcium.
(§2) Tibiae are used for histomorphometric analysis and femurs for measurement of cortical and trabecular volumetric density and geometry by peripheral quantitative computed tomography (pQCT) ex vivo.

[3] = Secondary prevention or treatment of osteoporosis in ovariectomized mice; assay type: in vivo, C3H female mice
Procedure: 12 week old C3H female mice are subjected to bilateral ovariectomy or sham surgery. The animals are treated with the analog or vehicle by oral gavage or intraperitoneally. Dosing is started 4 weeks after sugery and continued for 4-10 weeks.
as §1, with “dual-energy,” for “dual-energy”, “determined and” for “determined. At the end of the experiment (8-9 weeks)”
as §2

vitamin D receptor = molecular target: T2, vitamin D receptor (Sus scrofa, UniProt A3RGC1); conditions: percentage activity (at 50% of the dose response) in comparison with 1α,25(OH)2D3 (=100%)
T2 sequence (A3RGC1 1-427): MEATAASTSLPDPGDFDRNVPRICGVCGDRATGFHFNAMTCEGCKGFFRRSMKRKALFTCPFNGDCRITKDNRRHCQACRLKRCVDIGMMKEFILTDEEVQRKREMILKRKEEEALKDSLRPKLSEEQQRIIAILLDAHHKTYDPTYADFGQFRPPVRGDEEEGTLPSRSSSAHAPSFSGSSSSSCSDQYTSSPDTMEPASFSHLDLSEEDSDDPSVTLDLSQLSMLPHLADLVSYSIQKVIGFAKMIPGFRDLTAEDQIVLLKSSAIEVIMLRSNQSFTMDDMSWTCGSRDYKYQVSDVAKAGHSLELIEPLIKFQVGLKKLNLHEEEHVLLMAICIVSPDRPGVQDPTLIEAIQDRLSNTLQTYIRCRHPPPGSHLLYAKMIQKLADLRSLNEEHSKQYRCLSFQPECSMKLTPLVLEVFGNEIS
Procedure: The incubation was performed at 4° C. for 20 h and phase separation was obtained by addition of dextran-coated charcoal.

[4] = for Femur calcium: NMRI mice; for IN VIVO STUDIES Osteocalcin serum: mice, daily intraperitoneal injection 7 consecutive days, percentage activity vs 1α,25(OH)2D3 (=100%); for IN VIVO STUDIES Calcium serum / IN VIVO STUDIES Calcium urine / Serum calcium in mice: mouse, ip, in vivo
Procedure: Eight weeks old, male NMRI mice were obtained from the Proefdierencentrum of Leuven (Belgium) and fed a vitamin D-replete diet (0.2% calcium, 1% phosphate, 2000 U vitamin D/kg; Hope Farms, Woerden, The Netherlands). […] The control group was injected with vehicle (arachis oil). The average weight of each group of 6 mice was determined at the beginning and at the end of the experiment. The following parameters were evaluated: serum calcium, serum osteocalcin, femur calcium and urinary calcium. Serum and urinary calcium were measured by a microcolorimetric assay (Sigma, St. Louis, Mo.). Femurs were removed and femur calcium content was measured in HCl-dissolved bone ash (obtained by heating for 24 h in an oven at 100° C.), using the same technique as for serum and urinary calcium.

[5] = background, well established; cited from earlier work
MCF-7 cells [6] = conditions: known superagonists; data published in J Bone Mineral Res 15 (2): 237-252 (2000); cited from earlier work
[7] = known superagonists; data published in J Bone Mineral Res 15 (2): 237-252 (2000); cited from earlier work

Compound | AFFINITY STUDIES DBP (hDBP) [%] | prodifferentiating effect (in words) (HL-60 cells; HL 60 cells) | IN VITRO STUDIES HL 60 (HL-60 cells) [%] | antiproliferative effect (in words) (MCF-7 cells [1]; MCF-7 cells) | IN VITRO STUDIES MCF-7 (MCF-7 cells [1]) [%] | Antiproliferative activity on MCF-7 cells (MCF-7 cells [1]) [%] | AFFINITY STUDIES VDR (vitamin D receptor) [%] | IN VIVO STUDIES Osteocalcin serum [4] [%] | IN VIVO STUDIES Calcium serum [4] | IN VIVO STUDIES Calcium urine [4] [%] | Serum calcium in mice [4] | other results
14-epi-2α-methyl-19-nor-23-yn-1α,25-dihydroxyvitamin D3 [Compound 108] | 0.3 | very potent | 4000 | very potent | 12000 | 12000 | 80 | 4 | 2% | 4 | 2% | prodifferentiating activity, times that of 1α,25(OH)2D3 (HL-60 cells; HL 60 cells): 40 times; antiproliferative activity, times that of 1α,25(OH)2D3 (MCF-7 cells [1]; MCF-7 cells): 120 times; serum calcium or urinary calcium levels ([2]; after at least four weeks, more particularly 8 weeks of treatment): not significantly increased; BMD, BMC and femur calcium ([2]; ovariectomized mice, dosing from 3 days after surgery for 8-9 weeks): increase; serum calcium or urinary calcium levels ([3]; after four weeks, more particularly 8 weeks of treatment): not significantly increased; BMD, BMC and femur calcium concentration ([3]; ovariectomized mice, dosing from 4 weeks after surgery, compared to levels prior to treatment): increase; increase of calcium levels in bone compared to 0.1 μg/kg/d 1,25(OH)2D3 ([4]; 1 μg/kg/d, 7 consecutive days): 18%; increase of calcium levels in bone compared to 0.2 μg/kg/d 1,25(OH)2D3 ([4]; 1 μg/kg/d, 7 consecutive days): 14%; increase of calcium levels in bone compared to 0.4 μg/kg/d 1,25(OH)2D3 ([4]; 1 μg/kg/d, 7 consecutive days): 20%; increase of calcium levels in bone compared to vehicle treated mice ([4]; 1 μg/kg/d, 7 consecutive days): 10%; Femur calcium ([4]; 0.4 μg/kg/d intraperitoneally, 7 consecutive days): 9.57 ± 0.26 mg; Femur calcium ([4]; 1 μg/kg/d intraperitoneally, 7 consecutive days): 10.52 ± 0.43*^,$ mg
C[C@H](CCCC(C)(C)O)[C@H]1CC[C@H]2/C(=C/C=C3C[C@@H](O)C[C@H](O)C3)CCC[C@]12C [19-nor-1α,25-dihydroxyvitamin D3] | – | – | – | – | – | – | – | – | – | – | – | calcemic effect, % of that of 1α,25(OH)2D3 [5]: 10%
CCC1C(O)CC(=CC=C2CCCC3(C)C2CCC3C(C)CC#CC(C)(C)O)CC1O (stereo not drawn) [Compound 112, 2α-ethyl-19-nor-23-yne-1α,25(OH)2D3] | 0.9 | very potent | 300 | very potent | 2000 | – | 55 | 3 | 1.6% | 0.8 | – | enhancement of antiproliferative effects on MCF-7 cells on introduction of the 23-yne side chain (MCF-7 cells [1]; compared with 2α-ethyl-19-nor-1α,25(OH)2D3 (110)): 3 fold
CCC1C(O)CC(=CC=C2CCCC3(C)C2CCC3C(C)CCCC(C)(C)O)CC1O (stereo not drawn) [Compound 113] | 3 | – | 10 | – | 75 | – | 8 | 0.4 | 0.4% | 0.4 | – | –
CCC1C(O)CC(=CC=C2CCCC3(C)C2CCC3C(C)CCCC(C)(C)O)CC1O (stereo not drawn) [Compound 114, 2α-ethyl-14-epi-19-nor-1α,25(OH)2D3] | 40 | – | 80 | – | 150 | – | 30 | 1 | 1% | 1 | – | –
CCC1C(O)CC(=CC=C2CCCC3(C)C2CCC3C(C)CC#CC(C)(C)O)CC1O (stereo not drawn) [Compound 115, 2β-ethyl-14-epi-19-nor-23-yne-1α,25(OH)2D3] | 0.2 | – | 80 | – | 600 | 600 | 9 | 0.1 | <<0.1% | <0.1 | <<0.1% | –
CCC1C(O)CC(=CC=C2CCCC3(C)C2CCC3C(C)CC#CC(C)(C)O)CC1O (stereo not drawn) [Compound 116, 2α-ethyl-14-epi-19-nor-23-yne-1α,25(OH)2D3] | 0.1 | very potent | 550 | very potent | 3000 | 3000 | 65 | 0.2 | 0.2% | – | 0.2% | –
CC(CC#CC(C)(C)O)C1CCC2C(=CC=C3CC(O)C(C)C(O)C3)CCCC21C (stereo not drawn) [Compound 117, 3,14-bis-epi-2α-methyl-19-nor-23-yn-1α,25-dihydroxyvitamin-D3] | 0 | very potent | 400 | very potent | – | – | 40 | – | <0.25% | <0.25 | – | –
C=C1/C(=C\C=C2/CCC[C@]3(C)[C@@H]([C@H](C)/C=C/[C@@H](O)C4CC4)CC[C@@H]23)C[C@@H](O)C[C@@H]1O [MC 903] | – | – | – | – | – | – | – | – | – | – | – | Antiproliferative activity on MCF-7 cells (MCF-7 cells [6]): 100-200%; Serum calcium in mice [7]: 1%
C=C1/C(=C\C=C2/CCC[C@]3(C)[C@@H]([C@H](C)OCCC(C)(C)O)CC[C@@H]23)C[C@@H](O)C[C@@H]1O [OCT] | – | – | – | – | – | – | – | – | – | – | – | Antiproliferative activity on MCF-7 cells (MCF-7 cells [6]): 100-150%; Serum calcium in mice [7]: 0.3%
